Results published in US8802895B2, “Amide derivatives of benzene-sulfonanilide, pharmaceutical composition thereof and method for cancer treatment using the same” (Cleveland State University, priority 2010, dated 2014).

What was measured:
[1] = system: LOX IMVI; assay: NCIDTP 60 cancer cell lines screening, Melanoma panel; assay type: cell-based
[2] = system: RXF 393; assay: NCIDTP 60 cancer cell lines screening, Renal Cancer panel; assay type: cell-based
[3] = system: MALME-3M; assay: NCIDTP 60 cancer cell lines screening, Melanoma panel; assay type: cell-based
[4] = system: SN12C; assay: NCIDTP 60 cancer cell lines screening, Renal Cancer panel; assay type: cell-based
[5] = system: A549/ATCC; assay: NCIDTP 60 cancer cell lines screening, Non-Small Cell Lung Cancer panel; assay type: cell-based
[6] = system: NCI-H522; assay: as above; assay type: cell-based
[7] = system: NCI-H322M; assay: as above; assay type: cell-based
[8] = system: DU-145; assay: NCIDTP 60 cancer cell lines screening, Prostate Cancer panel; assay type: cell-based
[9] = system: BT-549; assay: NCIDTP 60 cancer cell lines screening, Breast Cancer panel; assay type: cell-based
[10] = system: HS 578T; assay: as above; assay type: cell-based
[11] = system: HT29 colon cancer xenograft; assay: In vivo study, HT29 colon cancer xenograft model (FIG. 11); design: species or system BALB/c athymic nude mice; details: HT29 xenograft in nude mice, 5 mg/kg/day, i.p., 20 days
Excerpt: HT29 colon cancer xenograft model is a generally accepted in vivo cancer model and the formed tumor grows very aggressively. […] In the experiment, HT29 xenografts were established in ovariectomized 5- to 6-week-old BALB/c athymic nude mice (Case Western Reserve University animal facility). When tumors reach 150-200 mm^3 (i.e., in 2-4 weeks), the animals are randomly allocated (n=3 per group) to be treated with the compounds or vehicle (1% Tween 80) administered via i.p. Tumor growth was assessed and tumor weights were measured at the end of the experiment after the mice were killed. The animal care was in accordance with institutional guidelines.

[12] = system: SF-268; assay: NCIDTP 60 cancer cell lines screening, CNS Cancer panel; assay type: cell-based
[13] = system: COLO 205; assay: NCIDTP 60 cancer cell lines screening, Colon Cancer panel; assay type: cell-based
[14] = system: SNB-19; assay: NCIDTP 60 cancer cell lines screening, CNS Cancer panel; assay type: cell-based
[15] = system: MDA-MB-231/ATCC; assay: NCIDTP 60 cancer cell lines screening, Breast Cancer panel; assay type: cell-based
[16] = system: HOP-92; assay: NCIDTP 60 cancer cell lines screening, Non-Small Cell Lung Cancer panel; assay type: cell-based

## Cc1ccc(C)c(COc2cc(NC(=O)c3ccc4c(c3)OCO4)ccc2N(C)S(C)(=O)=O)c1 [Compound #10, Benzo[1,3]dioxole-5-carboxylic acid [3-(2,5-dimethyl-benzyloxy)-4-(methanesulfonyl-methyl-amino)-phenyl]-amide]
[1]
  TGI: >1.00E−4 Molar
[1]; Homo sapiens
  GI50: 66.6 nM
[1]; Homo sapiens, read-out: LC50
  CC50: > 100000 nM
[1]; Log10 Concentration −4.0 Molar
  Percent Growth: 26%
[1]; Log10 Concentration −5.0 Molar
  Percent Growth: 21%
[1]; Log10 Concentration −6.0 Molar
  Percent Growth: 13%
[1]; Log10 Concentration −7.0 Molar
  Percent Growth: 41%
[1]; Log10 Concentration −8.0 Molar
  Percent Growth: 91%
[2]; Homo sapiens, RXF 393
  GI50: 128 nM
[2]; Homo sapiens, RXF 393, read-out: LC50
  CC50: > 100000 nM
[2]; RXF 393
  TGI: 4.03E−7 Molar
[2]; RXF 393, Log10 Concentration −4.0 Molar
  Percent Growth: −18%
[2]; RXF 393, Log10 Concentration −5.0 Molar
  Percent Growth: −20%
[2]; RXF 393, Log10 Concentration −6.0 Molar
  Percent Growth: −39%
[2]; RXF 393, Log10 Concentration −7.0 Molar
  Percent Growth: 61%
[2]; RXF 393, Log10 Concentration −8.0 Molar
  Percent Growth: 81%
[3]; Homo sapiens, Malme-3M
  GI50: 229 nM
[3]; Homo sapiens, Malme-3M, read-out: LC50
  CC50: > 100000 nM
[3]; MALME-3M
  TGI: >1.00E−4 Molar
[3]; MALME-3M, Log10 Concentration −4.0 Molar
  Percent Growth: 49%
[3]; MALME-3M, Log10 Concentration −5.0 Molar
  Percent Growth: 40%
[3]; MALME-3M, Log10 Concentration −6.0 Molar
  Percent Growth: 31%
[3]; MALME-3M, Log10 Concentration −7.0 Molar
  Percent Growth: 61%
[3]; MALME-3M, Log10 Concentration −8.0 Molar
  Percent Growth: 87%
[4]
  TGI: >1.00E−4 Molar
[4]; Homo sapiens
  GI50: 472 nM
[4]; Homo sapiens, read-out: LC50
  CC50: > 100000 nM
[4]; Log10 Concentration −4.0 Molar
  Percent Growth: 23%
[4]; Log10 Concentration −5.0 Molar
  Percent Growth: 22%
[4]; Log10 Concentration −6.0 Molar
  Percent Growth: 30%
[4]; Log10 Concentration −7.0 Molar
  Percent Growth: 91%
[4]; Log10 Concentration −8.0 Molar
  Percent Growth: 96%
[5]; A549/ATCC
  TGI: 1.36E−5 Molar
[5]; A549/ATCC, Log10 Concentration −4.0 Molar
  Percent Growth: −29%
[5]; A549/ATCC, Log10 Concentration −5.0 Molar
  Percent Growth: 5%
[5]; A549/ATCC, Log10 Concentration −6.0 Molar
  Percent Growth: 12%
[5]; A549/ATCC, Log10 Concentration −7.0 Molar
  Percent Growth: 80%
[5]; A549/ATCC, Log10 Concentration −8.0 Molar
  Percent Growth: 97%
[5]; Homo sapiens, A549, read-out: LC50
  CC50: > 100000 nM
[5]; Homo sapiens, A549/ATCC
  GI50: 278 nM
[6]; Homo sapiens, NCI-H522
  GI50: 33.5 nM
[6]; Homo sapiens, NCI-H522, read-out: LC50
  CC50: > 100000 nM
[6]; NCI-H522
  TGI: 2.40E−7 Molar
[6]; NCI-H522, Log10 Concentration −4.0 Molar
  Percent Growth: −36%
[6]; NCI-H522, Log10 Concentration −5.0 Molar
  Percent Growth: −42%
[6]; NCI-H522, Log10 Concentration −6.0 Molar
  Percent Growth: −37%
[6]; NCI-H522, Log10 Concentration −7.0 Molar
  Percent Growth: 23%
[6]; NCI-H522, Log10 Concentration −8.0 Molar
  Percent Growth: 80%
[7]
  TGI: >1.00E−4 Molar
[7]; Homo sapiens
  GI50: 468 nM
[7]; Homo sapiens, read-out: LC50
  CC50: > 100000 nM
[7]; Log10 Concentration −4.0 Molar
  Percent Growth: 28%
[7]; Log10 Concentration −5.0 Molar
  Percent Growth: 26%
[7]; Log10 Concentration −6.0 Molar
  Percent Growth: 30%
[7]; Log10 Concentration −7.0 Molar
  Percent Growth: 91%
[7]; Log10 Concentration −8.0 Molar
  Percent Growth: 94%
[8]; DU-145
  TGI: 4.57E−7 Molar
[8]; DU-145, Log10 Concentration −4.0 Molar
  Percent Growth: −28%
[8]; DU-145, Log10 Concentration −5.0 Molar
  Percent Growth: −39%
[8]; DU-145, Log10 Concentration −6.0 Molar
  Percent Growth: −37%
[8]; DU-145, Log10 Concentration −7.0 Molar
  Percent Growth: 72%
[8]; DU-145, Log10 Concentration −8.0 Molar
  Percent Growth: 96%
[8]; Homo sapiens, DU-145
  GI50: 159 nM
[8]; Homo sapiens, DU-145, read-out: LC50
  CC50: > 100000 nM
[9]; BT-549
  TGI: >1.00E−4 Molar
[9]; BT-549, Log10 Concentration −4.0 Molar
  Percent Growth: 21%
[9]; BT-549, Log10 Concentration −5.0 Molar
  Percent Growth: 13%
[9]; BT-549, Log10 Concentration −6.0 Molar
  Percent Growth: 45%
[9]; BT-549, Log10 Concentration −7.0 Molar
  Percent Growth: 70%
[9]; BT-549, Log10 Concentration −8.0 Molar
  Percent Growth: 92%
[9]; Homo sapiens, BT-549
  GI50: 656 nM
[9]; Homo sapiens, BT-549, read-out: LC50
  CC50: > 100000 nM
[10]; HS 578T, Log10 Concentration −4.0 Molar
  Percent Growth: 3%
[10]; HS 578T, Log10 Concentration −5.0 Molar
  Percent Growth: −9%
[10]; HS 578T, Log10 Concentration −6.0 Molar
  Percent Growth: −5%
[10]; HS 578T, Log10 Concentration −7.0 Molar
  Percent Growth: 47%
[10]; HS 578T, Log10 Concentration −8.0 Molar
  Percent Growth: 90%
[10]; Homo sapiens, Hs-578T, read-out: LC50
  CC50: > 100000 nM
[10]; Homo sapiens, HS 578T
  GI50: 87 nM
[11]
  tumor growth: significantly inhibited the tumor growth
[12]; Homo sapiens, SF-268
  GI50: 288 nM
[12]; Homo sapiens, SF-268, read-out: LC50
  CC50: > 100000 nM
[12]; SF-268
  TGI: >1.00E−4 Molar
[12]; SF-268, Log10 Concentration −4.0 Molar
  Percent Growth: 16%
[12]; SF-268, Log10 Concentration −5.0 Molar
  Percent Growth: 9%
[12]; SF-268, Log10 Concentration −6.0 Molar
  Percent Growth: 19%
[12]; SF-268, Log10 Concentration −7.0 Molar
  Percent Growth: 77%
[12]; SF-268, Log10 Concentration −8.0 Molar
  Percent Growth: 93%
[13]; COLO 205
  TGI: 1.07E−6 Molar
[13]; COLO 205, Log10 Concentration −4.0 Molar
  Percent Growth: −33%
[13]; COLO 205, Log10 Concentration −5.0 Molar
  Percent Growth: −41%
[13]; COLO 205, Log10 Concentration −6.0 Molar
  Percent Growth: 1%
[13]; COLO 205, Log10 Concentration −7.0 Molar
  Percent Growth: 99%
[13]; COLO 205, Log10 Concentration −8.0 Molar
  Percent Growth: 105%
[13]; Homo sapiens, COLO 205
  GI50: 318 nM
[13]; Homo sapiens, COLO 205, read-out: LC50
  CC50: > 100000 nM
[14]; Homo sapiens, SNB-19
  GI50: 537 nM
[14]; Homo sapiens, SNB-19, read-out: LC50
  CC50: > 100000 nM
[14]; SNB-19
  TGI: >1.00E−4 Molar
[14]; SNB-19, Log10 Concentration −4.0 Molar
  Percent Growth: 39%
[14]; SNB-19, Log10 Concentration −5.0 Molar
  Percent Growth: 30%
[14]; SNB-19, Log10 Concentration −6.0 Molar
  Percent Growth: 36%
[14]; SNB-19, Log10 Concentration −7.0 Molar
  Percent Growth: 89%
[14]; SNB-19, Log10 Concentration −8.0 Molar
  Percent Growth: 93%
[15]; Homo sapiens, MDA-MB-231, read-out: LC50
  CC50: > 100000 nM
[15]; Homo sapiens, MDA-MB-231/ATCC
  GI50: 256 nM
[15]; MDA-MB-231/ATCC
  TGI: 9.26E−7 Molar
[15]; MDA-MB-231/ATCC, Log10 Concentration −4.0 Molar
  Percent Growth: −7%
[15]; MDA-MB-231/ATCC, Log10 Concentration −5.0 Molar
  Percent Growth: −17%
[15]; MDA-MB-231/ATCC, Log10 Concentration −6.0 Molar
  Percent Growth: −3%
[15]; MDA-MB-231/ATCC, Log10 Concentration −7.0 Molar
  Percent Growth: 87%
[15]; MDA-MB-231/ATCC, Log10 Concentration −8.0 Molar
  Percent Growth: 90%
[16]; HOP-92
  TGI: >1.00E−4 Molar
[16]; HOP-92, Log10 Concentration −4.0 Molar
  Percent Growth: 37%
[16]; HOP-92, Log10 Concentration −5.0 Molar
  Percent Growth: 39%
[16]; HOP-92, Log10 Concentration −6.0 Molar
  Percent Growth: 62%
[16]; HOP-92, Log10 Concentration −7.0 Molar
  Percent Growth: 62%
[16]; HOP-92, Log10 Concentration −8.0 Molar
  Percent Growth: 78%
[16]; Homo sapiens, HOP-92
  GI50: 32.2 nM
[16]; Homo sapiens, HOP-92, read-out: LC50
  CC50: > 100000 nM
